According to patent publication US7438933B2, “Maternal multi-nutrient against diabetes-related birth defects” (The Board of Trustees of the University of Arkansas System, priority 2004, dated 2008):

What was measured:
diabetic pregnancies = conditions: experimental models; reduced from 25%; cited from earlier work
embryos of diabetic rats = experiment: Dietary supplementation of pregnant STZ-diabetic and non-diabetic rats; neural tube defects in E12 embryos; format: in vivo, rat; conditions: supplemented diet from day 1 of pregnancy, embryos at E12
Experimental: To induce diabetes, 8-week-old Sprague-Dawley female rats are injected with 65 mg/kg of streptozotocin via the tail vein. Blood glucose levels are monitored daily (by tail vein puncture using a lancet) using a Prestige Smart blood glucose meter (Home Diagnostics, Fort Lauderdale, Fla.). Once a level of hyperglycemia indicative of diabetes (>250 mg/dl) is achieved, a sustained-release insulin pellet (Linplant, Linshin, Canada) will be inserted subcutaneously.
When glucose levels are restored to normal (80-150 mg/dl) and are stable for at least three continuous days, matings can be set up with male rats of the same strain. Day zero of pregnancy is established by identifying spermatozoa in vaginal smears. At designated developmental stages, insulin pellets are withdrawn to generate hyperglycemia in the pregnant rats. A group of control rats will continuously receive insulin during the course of the experiment. Glucose levels and maternal weight are continuously monitored during the pregnancy. Since it has already been shown that there is no difference in embryonic development between streptozotocin/insulin-treated and non-streptozotocin-treated animals, the streptozotocin/insulin-treated groups are used as an equivalent of non-diabetic control. At the end of the experiment, rats are euthanized and embryos dissected out of the uterus for examination and analysis. At least four pregnant rats are included in each group, from which 40-60 embryos can be obtained for examination. For each type of study, at least three replicate experiments will be carried out.
To investigate the effects of maternal hyperglycemia on embryonic malformations, the investigators employed a rat model that induces diabetes by streptozotocin (STZ). Subcutaneously implanted insulin pellets maintained euglycemia at the time of mating. On day 4 of pregnancy, the insulin pellets were removed, and the developing embryos were exposed to hyperglycemia during organogenesis (days 9-12). To maintain a euglycemic control, insulin pellets were retained in the body during the entire experimental course. On day 12, both sets of rats were euthanized, embryos were dissected out of the uteri for examination, and each embryo's yolk sac was collected for biochemical and molecular analyses.
After removal from the dams, embryos were examined under a dissecting microscope and assessed for morphological malformations in a number of categories to determine the effects of maternal hyperglycemia. […]
At E12, embryos were dissected out of uteri and evaluated for neural tube defects (NTDs), which were used as a measure of malformation rates.

yolk sacs = experiment: DNA laddering assay of apoptosis in embryonic yolk sacs after maternal supplementation; format: in vivo, rat; conditions: embryos of diabetic mothers with supplemented diet, FIG. 7
Experimental: To determine whether hyperglycemia is associated with programmed cell death in embryos, DNA laddering was examined in yolk sacs of embryos with either diabetic or non-diabetic mothers. Yolk sac tissues were collected from embryos, and DNA was extracted using DNeasy Tissue Kit (Qiagen, Valencia, Calif.) and resolved on 0.5% agarose gel. […] To examine whether supplemented diets affected apoptosis in developing embryos of diabetic dams, DNA fragmentation (an indicator of apoptosis) was analyzed using DNA laddering assays.

caspase3 = experiment: Western blot of phosphorylated caspase3 in yolk sac cells; format: in vivo, rat; conditions: embryos of diabetic dams with supplementation, FIG. 4A
From the text: (§1) Apoptosis is mediated by a program involving a number of factors, including caspase3 and Bax (a member of the Bcl-2 family). Hyperglycemia may stimulate JNK activity, which then activates caspases and leads to apoptosis. Activation of Bax is also a hallmark of ongoing apoptosis. To determine whether caspase and Bax activation are involved in maternal diabetic embryopathy, changes in the levels of phosphorylated caspase3 and Bax in yolk sac cells from embryos with either diabetic or non-diabetic mothers were assessed. Cell lysates were resolved on 12% polyacrylamide gel and blotted on nylon membrane. The blots were probed with antibodies raised against phosphorylated caspase3 or Bax (Santa Cruz Biotechnologies, Santa Cruz, Calif.). Signals were detected using a chemiluminescence detection method and exposed to X-ray film (FIG. 4A). The density of the bands on X-ray film was measured using densitometry (VersaDoc Imaging System, Bio-Rad, Hercules, Calif.) and analyzed with one-dimensional analysis software (Bio-Rad; FIGS. 4B and C). The value of each band was calculated as a percentage of the control, which was set at 100%.

Bax = experiment: Western blot of phosphorylated Bax in yolk sac cells; format: in vivo, rat; conditions: embryos of diabetic dams with supplementation, FIG. 4A
From the text: as §1

ERK1/2 = experiment: Western blot of phosphorylated ERK1/2 in embryonic yolk sac cells; format: in vivo, rat; conditions: diabetic dams with supplemented diet, changed to the levels of non-diabetic rats, FIG. 8
Experimental: (§2) The active forms of ERK and JNK are phosphorylated, so their activation in yolk sac tissues were assessed by Western blot detection of the corresponding phosphoproteins. The levels of phosphorylated Raf-1 which activates ERKs and Akt which is an antiapototic protein were also assessed by western blot. Yolk sac tissues were isolated, protein was extracted and analyzed using Western blotting with antibodies specific for phosphorylated ERK-1 and -2 (p-ERK1/2), JNK-1 and -2 (p-JNK1/2), RAF-1 and Akt (FIG. 6A). […] Levels of phosphorylated ERK1/2, JNK1/2, Raf-1 and Akt in embryonic yolk sac cells were evaluated using Western blot assays.

JNK1/2 = experiment: Western blot of phosphorylated JNK1/2 in embryonic yolk sac cells; format: in vivo, rat; conditions: diabetic dams with supplemented diet, changed to the levels of non-diabetic rats, FIG. 8
Experimental: as §2

Row | Compound | malformation rate in diabetic pregnancies (diabetic pregnancies) | NTDs (%) (embryos of diabetic rats; diabetic rats) | NTDs (%) (embryos of diabetic rats; non-diabetic rats) | DNA fragmentation (DNA laddering) in yolk sacs (yolk sacs) | phosphorylated caspase3 level in yolk sacs (caspase3) | phosphorylated Bax level in yolk sacs (Bax) | level of activated ERKs (p-ERK1/2) in embryonic yolk sacs (ERK1/2) | level of activated JNKs (p-JNK1/2) in embryonic yolk sacs (JNK1/2)
1 | O=C(O)CCCC[C@@H]1CCSS1 (racemic) [lipoic acid] | 10% |  |  |  |  |  |  | 
2 | CCCCC/C=C\C/C=C\C/C=C\C/C=C\CCCC(=O)O [arachidonic acid] |  | 7.6% | 4.1% | DNA fragmentation was eliminated | reversal of increased caspase3 and Bax levels | reversal of increased caspase3 and Bax levels | altered embryo levels of activated ERKs and JNKs | altered embryo levels of activated ERKs and JNKs
3 | Cc1c(C)c2c(c(C)c1O)CC[C@@](C)(CCC[C@H](C)CCC[C@H](C)CCCC(C)C)O2 [vitamin E, α-tocopherol] |  | 6.9% | 5.0% | DNA fragmentation was eliminated | reversal of increased caspase3 and Bax levels | reversal of increased caspase3 and Bax levels | altered embryo levels of activated ERKs and JNKs | altered embryo levels of activated ERKs and JNKs
